Laboratory results: BindingDB's records for patent WO2022076764 (BRISTOL-MYERS SQUIBB COMPANY, 2022)
pEC50: −log10 of the molar value.

Columns and labels:
fMet-Leu-Phe receptor = target: T1, fMet-Leu-Phe receptor (Homo sapiens, UniProt P21462)
T1 sequence (P21462 whole entry): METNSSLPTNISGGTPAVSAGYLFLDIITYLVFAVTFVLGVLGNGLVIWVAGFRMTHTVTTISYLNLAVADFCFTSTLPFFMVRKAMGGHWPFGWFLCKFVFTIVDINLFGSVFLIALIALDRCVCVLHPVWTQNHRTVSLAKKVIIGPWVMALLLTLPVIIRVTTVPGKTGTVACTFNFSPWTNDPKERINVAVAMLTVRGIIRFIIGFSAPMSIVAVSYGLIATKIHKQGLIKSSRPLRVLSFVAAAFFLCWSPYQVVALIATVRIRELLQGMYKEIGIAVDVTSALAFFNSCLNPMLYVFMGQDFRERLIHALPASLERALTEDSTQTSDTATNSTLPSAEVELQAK

[1] = target: T2, N-formyl peptide receptor 2 (Homo sapiens, UniProt P25090)
T2 sequence (P25090 whole entry): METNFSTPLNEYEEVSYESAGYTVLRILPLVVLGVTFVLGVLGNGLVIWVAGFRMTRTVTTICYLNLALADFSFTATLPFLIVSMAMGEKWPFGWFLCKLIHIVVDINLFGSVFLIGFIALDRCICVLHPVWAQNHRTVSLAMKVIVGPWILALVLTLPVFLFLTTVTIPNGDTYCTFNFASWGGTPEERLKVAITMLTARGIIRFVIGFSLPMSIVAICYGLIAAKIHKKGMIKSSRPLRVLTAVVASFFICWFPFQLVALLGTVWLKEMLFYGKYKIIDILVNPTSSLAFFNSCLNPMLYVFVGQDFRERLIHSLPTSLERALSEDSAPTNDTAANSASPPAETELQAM

SMILES | pEC50 (fMet-Leu-Phe receptor) | pEC50 [1]
COc1cc(F)c(-n2cc(-c3ccccc3)nc2NC(=O)c2ccc(OC(F)F)cc2)c(F)c1 [WO2022076764, Example 1] | 8.40 | 6.70
COc1ccc(-n2cc(-c3ccccc3)nc2NC(=O)c2ccc(OC(F)F)cc2)cc1 [WO2022076764, Example 2] | 8.52 | 7.42
COc1cccc(-c2cn(-c3c(F)cc(OC)cc3F)c(NC(=O)c3ccc(OC(F)F)cc3)n2)c1 [WO2022076764, Example 3] | 8.10 | 7.06
COc1cc(F)c(-n2cc(-c3ccc(F)cc3)nc2NC(=O)c2ccc(OC(F)F)cc2)c(F)c1 [WO2022076764, Example 4] | 7.96 | 6.40
COc1cc(F)c(-n2cc(-c3ccc(Cl)c(C)c3)nc2NC(=O)c2ccc(OC(F)F)cc2)c(F)c1 [WO2022076764, Example 5] | 7.33 | 6.85
COc1cc(F)c(-n2cc(-c3ccc(C(F)(F)F)cc3)nc2NC(=O)c2ccc(OC(F)F)cc2)c(F)c1 [WO2022076764, Example 6] | 7.12 | 6.92
COc1cc(F)c(-n2cc(-c3ccc(OC(F)F)cc3)nc2NC(=O)c2ccc(OC(F)F)cc2)c(F)c1 [WO2022076764, Example 7] | 7.48 | 6.72
COc1cc(F)c(-n2c(NC(=O)c3ccc(OC(F)F)cc3)nc(-c3ccccc3)c2C)c(F)c1 [WO2022076764, Example 8] | 8.10 | 6.64
COc1cc(F)c(-n2cc(-c3ccc4ccccc4c3)nc2NC(=O)c2ccc(OC(F)F)cc2)c(F)c1 [WO2022076764, Example 9] | 6.66 | 6.34
COc1cc(F)c(-n2cc(-c3cccc(F)c3)nc2NC(=O)c2ccc(OC(F)F)cc2)c(F)c1 [WO2022076764, Example 10] | 8.15 | 6.70
COc1cc(F)c(-n2cc(-c3ccc(Cl)cc3)nc2NC(=O)c2ccc(OC(F)F)cc2)c(F)c1 [WO2022076764, Example 11] | 7.62 | 6.85
COc1cc(F)c(-n2cc(-c3cccc(Cl)c3)nc2NC(=O)c2ccc(OC(F)F)cc2)c(F)c1 [WO2022076764, Example 12] | 7.82 | 6.35
COc1cc(F)c(-n2c(NC(=O)c3ccc(OC(F)F)cc3)nc(-c3ccc(Cl)cc3)c2C)c(F)c1 [WO2022076764, Example 13] | 7.28 | 6.26
COc1ccc(-c2cn(-c3c(F)cc(OC)cc3F)c(NC(=O)c3ccc(OC(F)F)cc3)n2)cc1 [WO2022076764, Example 14] | 7.41 | 6.80
COc1cc(F)c(-n2cc(-c3ccc(C)cc3)nc2NC(=O)c2ccc(OC(F)F)cc2)c(F)c1 [WO2022076764, Example 15] | 7.64 | 6.89
COc1cc(F)c(-n2cc(-c3ccc(C#N)cc3)nc2NC(=O)c2ccc(OC(F)F)cc2)c(F)c1 [WO2022076764, Example 16] | 7.57 | 6.64
COc1cc(F)c(-n2cc(-c3cccc(C#N)c3)nc2NC(=O)c2ccc(OC(F)F)cc2)c(F)c1 [WO2022076764, Example 17] | 8.30 | 7.34
COc1cc(F)c(-n2cc(-c3ccc(Cl)c(Cl)c3)nc2NC(=O)c2ccc(OC(F)F)cc2)c(F)c1 [WO2022076764, Example 18] | 7.29 | 6.40
COc1ccc(-n2cc(-c3ccc4c(c3)CCO4)nc2NC(=O)c2ccc(OC(F)F)cc2)cc1 [WO2022076764, Example 19] | 7.55 | 7.03
COc1ccc(-n2cc(-c3ccnc(Cl)c3)nc2NC(=O)c2ccc(OC(F)F)cc2)cc1 [WO2022076764, Example 20] | 8.30 | 7.72
COc1ccc(-n2cc(-c3ccc(F)cc3F)nc2NC(=O)c2ccc(OC(F)F)cc2)cc1 [WO2022076764, Example 21] | 7.54 | 7.12
COc1ccc(-n2cc(-c3ccc4sccc4c3)nc2NC(=O)c2ccc(OC(F)F)cc2)cc1 [WO2022076764, Example 22] | 7.07 | 6.85
COc1ccc(-n2cc(-c3nc4ccccc4s3)nc2NC(=O)c2ccc(OC(F)F)cc2)cc1 [WO2022076764, Example 23] | 7.55 | 7.36
COc1ccc(-n2cc(-c3nccs3)nc2NC(=O)c2ccc(OC(F)F)cc2)cc1 [WO2022076764, Example 24] | 8.05 | 6.96
COc1cc(F)c(-n2cc(-c3ccccc3F)nc2NC(=O)c2ccc(OC(F)F)cc2)c(F)c1 [WO2022076764, Example 25] | 8.22 | 7.33

SMILES | pEC50 (fMet-Leu-Phe receptor) | pEC50 [1]
COc1ccc(-n2cc(-c3nc4cc(Cl)ccc4o3)nc2NC(=O)c2ccc(OC(F)F)cc2)cc1 [WO2022076764, Example 26] | 7.14 | 6.40
COc1ccc(-n2cc(C3CCCCC3)nc2NC(=O)c2ccc(OC(F)F)cc2)cc1 [WO2022076764, Example 27] | 7.26 | 6.18
COc1ccc(-n2cc(-c3ccccn3)nc2NC(=O)c2ccc(OC(F)F)cc2)cc1 [WO2022076764, Example 28] | 6.15 | 5.99
CCOC(=O)c1cc(-c2cn(-c3ccc(OC)cc3)c(NC(=O)c3ccc(OC(F)F)cc3)n2)on1 [WO2022076764, Example 29] | 7.82 | 7.49
CCOC(=O)c1cn(-c2ccc(OC)cc2)c(NC(=O)c2ccc(OC(F)F)cc2)n1 [WO2022076764, Example 30] | 8.05 | 7.00
COc1ccc(-n2cc(C34CC5CC(CC(C5)C3)C4)nc2NC(=O)c2ccc(OC(F)F)cc2)cc1 [WO2022076764, Example 31] | 6.49 | < 5.00
COc1ccc(-n2cc(C(C)(C)C)nc2NC(=O)c2ccc(OC(F)F)cc2)cc1 [WO2022076764, Example 32] | 7.74 | 6.96
COc1cc(F)c(-n2cc(-c3ccccc3F)nc2NC(=O)c2ccc(OC(F)F)cc2)c(F)c1 [WO2022076764, Example 33] | 7.41 | 6.03
COc1cc(F)c(-n2cc(-c3ccnc(Cl)c3)nc2NC(=O)c2ccc(OC(F)F)cc2)c(F)c1 [WO2022076764, Example 34] | 7.80 | 6.92
COc1cc(F)c(-n2cc(CC(C)C)nc2NC(=O)c2ccc(OC(F)F)cc2)c(F)c1 [WO2022076764, Example 35] | 7.00 | 5.85
COc1cc(F)c(-n2cc(-c3ccc(F)c(F)c3)nc2NC(=O)c2ccc(OC(F)F)cc2)c(F)c1 [WO2022076764, Example 36] | 7.51 | 6.49
COc1cc(F)c(-n2cc(C3CC3)nc2NC(=O)c2ccc(OC(F)F)cc2)c(F)c1 [WO2022076764, Example 37] | 7.80 | 6.10
CCOC(=O)c1cn(-c2c(F)cc(OC)cc2F)c(NC(=O)c2ccc(OC(F)F)cc2)n1 [WO2022076764, Example 38] | 7.82 | 6.21
CCc1cn(-c2c(F)cc(OC)cc2F)c(NC(=O)c2ccc(OC(F)F)cc2)n1 [WO2022076764, Example 39] | 7.68 | 6.00
COc1cc(F)c(-n2cc(-c3nccs3)nc2NC(=O)c2ccc(OC(F)F)cc2)c(F)c1 [WO2022076764, Example 40] | 7.96 | 6.00
COc1cc(F)c(-n2cc(C3CCOCC3)nc2NC(=O)c2ccc(OC(F)F)cc2)c(F)c1 [WO2022076764, Example 41] | 7.59 | 6.64
COc1cc(F)c(-n2cc(C(F)(F)C(F)(F)F)nc2NC(=O)c2ccc(OC(F)F)cc2)c(F)c1 [WO2022076764, Example 42] | 7.32 | 7.24
COc1cc(F)c(-n2cc(C(F)(F)F)nc2NC(=O)c2ccc(OC(F)F)cc2)c(F)c1 [WO2022076764, Example 43] | 8.00 | 7.40
COc1cc(F)c(-n2cc(C(=O)NCc3cc[nH]n3)nc2NC(=O)c2ccc(OC(F)F)cc2)c(F)c1 [WO2022076764, Example 44] | 7.32 | 6.43
COc1ccc(-n2cc(C(=O)N3CCNCC3)nc2NC(=O)c2ccc(OC(F)F)cc2)cc1 [WO2022076764, Example 45] | 7.85 | 6.15
COc1ccc(-n2cc(C(=O)NCCCO)nc2NC(=O)c2ccc(OC(F)F)cc2)cc1 [WO2022076764, Example 46] | 7.57 | 6.68
COc1cc(F)c(-n2cc(C(=O)NCc3cccnc3)nc2NC(=O)c2ccc(OC(F)F)cc2)c(F)c1 [WO2022076764, Example 47] | 7.46 | 6.96
COc1cc(F)c(-n2cc(C(=O)NCc3ccncc3)nc2NC(=O)c2ccc(OC(F)F)cc2)c(F)c1 [WO2022076764, Example 48] | 6.96 | 6.22
COc1cc(F)c(-n2cc(C(=O)NCC3CCC(O)CC3)nc2NC(=O)c2ccc(OC(F)F)cc2)c(F)c1 (stereo not given) [WO2022076764, Example 49] | 7.05 | 6.12
COc1cc(F)c(-n2cc(C(=O)N3CCC[C@H]3CO)nc2NC(=O)c2ccc(OC(F)F)cc2)c(F)c1 [WO2022076764, Example 50] | 7.11 | < 5.00
